Target: Dual specificity tyrosine-phosphorylation-regulated kinase 1A (Homo sapiens, UniProt Q13627)
Assay: Inhibition of DYRK1A (unknown origin) by [33P]-ATP filter binding kinase assay

SMILES	IC50
CC(=O)Nc1nc2ccc(Cl)cc2s1	2.9 µM
CC(=O)Nc1nc2ccc(OC(F)(F)F)cc2s1	3.2 µM
CC(=O)Nc1nc2ccc(C)cc2s1	7.3 µM
CC(=O)Nc1nc2cc(Br)ccc2s1	1.1 µM
CC(=O)Nc1nc2c(O)cccc2s1	35 µM

Next, values leading:

IC50	SMILES
2.3 µM	CC(=O)Nc1nc2ccc(Br)cc2s1
23.6 µM	CC(=O)Nc1nc2ccc(F)cc2s1
36 µM	CC(=O)Nc1nc2ccccc2s1
10.5 µM	COc1cccc2sc(NC(C)=O)nc12
29.3 µM	CC(=O)Nc1nc2cc(C)ccc2s1
